Measurements reported in article PMC2974656, “Selective killing of human immunodeficiency virus infected cells by non-nucleoside reverse transcriptase inhibitor-induced activation of HIV protease” (Retrovirology, 2010).

How the values were obtained:
[1] = test system: intracellular Gag processing by HIV PR; format: cell-based, HIV-1; settings: 293T cells, 44 h post transfection
Protocol: In previous studies, high concentrations of NNRTI (5 μM) were required to observe NNRTI mediated activation of intracellular HIV PR activity. […]. Towards this end, we developed a biochemical assay for gel independent quantitation of intracellular Gag processing by HIV PR in the context of a virus producing cell. We had previously shown that additional protein domains, consisting of small epitope tags or even the 27 kDa green fluorescent protein (EGFP), can be inserted between the MA and CA domains of the Gag and Gag-Pol polyproteins without affecting polyprotein production or processing by HIV PR [36]. Based on this, we designed a HIV reporter construct which contained a small N-terminal fragment ('alpha peptide') of Escherichia coli beta-galactosidase (β-Gal), flanked by two HIV PR recognition sites, between the MA and CA coding sequences of Gag (Figure 1A). […] This so called alpha complementation principle can be exploited for use in mammalian cells and has been employed for the establishment of various cell based biochemical assay systems. We reasoned that embedding of the small alpha peptide within the multi-domain polyproteins Gag or Gag-Pol, respectively, should impair its productive association with the omega subunit, while proteolytic release of the alpha peptide from the polyprotein by PR would allow the formation of enzymatically active β-Gal. This should allow us to monitor intracellular Gag and Gag-Pol processing through increased β-Gal activity.
Reconstituted β-Gal activity in cell lysates was measured by cleavage of the chromogenic substrate CPRG [42] as described in Methods.
The activity of β-Gal in cell lysates from transfected 293T cells was measured by enzymatic cleavage of the chromogenic β-Gal substrate chlorphenolred-β-D-galactopyranoside (CPRG, Roche; [42]). At 44 h post transfection, cells were briefly rinsed with PBS and suspended in reporter gene assay lysis buffer (Roche, 600 μl per 6-well dish) supplemented with a protease inhibitor mix (Roche). Cell suspensions were incubated for 10 min at room temperature and cell debris was subsequently removed by brief centrifugation. Five μl of supernatant were diluted in 96-well plates with 95 μl CPRG reaction buffer (50 mM potassium phosphate, pH 7.5, 1 mM MgCl2) and pre-warmed for 5 min to 37°C. 100 μl of pre-warmed reaction mix (100 μM CPRG in CPRG reaction buffer supplemented with protease inhibitor cocktail and 40 μM β-mercaptoethanol) were added and β-Gal mediated cleavage of CPRG was monitored by recording absorption at 592 nm every 2 min for 20 min at 37°C using a TECAN Safire multi-well reader. OD592 values were plotted over time and relative reaction rates (OD592/min) were determined from the initial linear velocities.

[2] = test system: MT4-CMV-EGFP control cells; assay: Cytotoxicity on uninfected control cells, EGFP fluorescence per well; format: cell-based
Protocol: The cytotoxicity of inhibitors was determined in parallel on MT4-CMV-EGFP control cells and on MT4-LTR-EGFP-IIIB virus producing cells, respectively.

RT heterodimer (p66/p51) = target: T1, RT heterodimer (p66/p51) (Human immunodeficiency virus type 1 group M subtype B, UniProt P04585); assay: cell-based; format: cell-based, HIV-1
T1 construct: the bait protein (p66) was fused to the C-terminus of a chimeric receptor; expressed in transfected cells; host or cells: mammalian cells
Excerpt: RT heterodimer formation was monitored using a mammalian two hybrid system described previously. In brief, the bait protein (p66) was fused to the C-terminus of a chimeric receptor consisting of the extracellular part of the erythropoietin receptor and the intracellular part of the leptin receptor incapable of STAT activation. The prey protein (p51) was coupled to a part of the cytoplasmic tail of the gp130 chain carrying several STAT3 recruitment domains. Interaction of bait and prey protein leads to functional complementation of STAT3 activity, which results in Epo dependent induction of a STAT3-responsive luciferase reporter gene. Enhancement of this interaction by the addition of compounds can thus be measured by an increase of luciferase expression.

HIV-1AGFP infected PBMC = assay: Killing of HIV-1 infected PBMC, proportion of GFP expressing cells by flow cytometry; format: cell-based, human; settings: 1 μM NNRTI, added day 2 post infection with AMD-3100, 5 days
Protocol: PBMC isolated from healthy blood donors were activated and infected with a replication competent HIV-1 derivative which carries a gfp gene in the nef locus [49]. The co-receptor antagonist AMD-3100 was added at day 2 post infection to prevent further viral spread.

[3] = test system: HXB2D-EGFP infected CD4 positive cells isolated from PBMC; assay: Killing of HIV-1 infected CD4 positive primary T-cells, flow cytometry; format: cell-based, human; settings: 1 μM NNRTI + 1 μM AZT, 3 days
Protocol: To validate our results obtained for the persistently infected cell line in a more relevant cell system we performed additional infection experiments using human peripheral blood mononuclear cells (PBMC). […]. PBMC isolated from healthy blood donors were activated and infected with a replication competent HIV-1 derivative which carries a gfp gene in the nef locus. The co-receptor antagonist AMD-3100 was added at day 2 post infection to prevent further viral spread. This was done to distinguish the proposed killing of infected cells from the inhibitory effect of NNRTIs and PIs on virus replication. […]. […] Similar results were obtained upon infection of CD4-positive primary T-cells with an EGFP-expressing virus (Figure 4B).
Figure 4 NNRTI induced selective killing of HIV-1 infected primary human cells. (A) PBMC prepared from buffy coats of healthy blood donors were infected with HIV-1AGFP. At day 2 post infection, 100 ng/ml AMD-3100 was added to all samples to prevent further infection. […] After further incubation for 5 days, cells were harvested and analyzed for the proportion of infected GFP expressing cells by flow cytometry. […] P-values were calculated using a two-tailed unpaired t-test (GraphPad Prism). Values were normalized to the respective solvent control. (B) CD4 positive cells isolated from PBMC were infected with HXB2D-EGFP. […] After further incubation for 3 days, cells were harvested and analyzed for the proportion of infected cells by flow cytometry. […] Asterisks: non-infected controls.
Peripheral blood mononuclear cells (PBMC) were purified from buffy coats of HIV-negative blood donors, grown in supplemented RPMI 1640 and stimulated by the addition of 10 ng/ml IL-2 (Biomol) and 2 μg/ml PHA (Sigma). PBMC pooled from two donors each were used for infection. […] For infection of PBMC, the HIV-1 derivatives HIV-1-AGFP [49] carrying the gfp gene fused to the codon for amino acid 16 of Nef in pNL4-3, or HXB2D-EGFP [60], which carries an egfp gene in the place of the viral nef open reading frame, were used as indicated. […]

293T cells = assay: Microscopically detectable impairment of cell growth of transfected 293T cells; format: cell-based; settings: high NNRTI concentrations (5 μM and above)
Protocol: At 44 h post transfection, cell lysates were analyzed for β-Gal activity.

## NS(=O)(=O)c1ccc(NC(=O)CSc2nnc(Br)n2-c2ccc(C3CC3)c3ccccc23)c(Cl)c1 [VRX-480773]
[1]
  Concentration showing strong β-Gal activity enhancement: ~ 250 nM
[2]
  CC50: 5.82 ± 1.44 µM
  CC50 on uninfected control cells relative to virus producing cells: ~ 10 fold
RT heterodimer (p66/p51); concentration enhancing luciferase signal by 50% over control, read-out: Enhancement of RT-Dimerization EC50
  EC50: 4 nM
RT heterodimer (p66/p51); summary of Table 1
  Promotion of RT dimerization, in words: low nM range
HIV-1AGFP infected PBMC
  Infected primary cells (PBMC) as compared with the control: significant reduction
[3]
  Cytotoxicity on infected CD4-positive primary T-cells: PR dependent cytotoxicity
293T cells
  Impairment of cell growth with decrease in β-Gal activity indicative of cytotoxic effects: most pronounced
